Reference: patent US9468604B2, “Pharmaceutical compositions of dispersions of drug and neutral polymers” (Bend Research, Inc., priority 2001, dated 2016)
Values belong to the compound of their own block, whether it stands above or below them.

Key:
Format in all cases: physicochemical
[1] = In vitro dissolution test of Drug 5 compositions in MFD solution; design: AUC90: concentration or dose not given beside the values; details: for AUC / Drug 5 Concentration: Table 27; for AUC / AUC90 / Cmax90: Drug 5, MFD solution; for Drug 5 Concentration: MFD solution; for AUC90 / Cmax90: 0 to 90 min
Protocol: (§1) For Control C2, the crystalline form of the drug alone was used without further processing. […] The tubes were placed in a 37° C. temperature-controlled bath, and 1.8 mL phosphate buffered saline (PBS) at pH 6.5 and 290 mOsm/kg was added to each. The samples were quickly mixed using a vortex mixer for about 60 seconds. The samples were centrifuged at 13,000 G at 37° C. for 1 minute. The resulting supernatant solutions were then sampled and diluted 1:6 (by volume) with methanol and then analyzed by high-performance liquid chromatography (HPLC). The contents of the tubes were mixed on the vortex mixer and allowed to stand undisturbed at 37° C. until the next sample was taken. Samples were collected at 4, 10, 20, 40, 90, and 1200 minutes.
In vitro dissolution tests were performed for Examples 28-29, using the procedure described in Example 4, with the following exceptions: 9 mg each of the dispersions of Examples 28-29 were added to separate respective centrifuge tubes. 1.8 mL of MFD solution was then added to each tube. For comparison, Control C12 was prepared consisting of 0.36 mg of crystalline Drug 5 added to 1.8 mL of MFD solution for a total theoretical concentration of 200 μg/mL if all of the drug dissolved. Drug 5 concentration in the samples was determined using HPLC. A Waters Symmetry C18 HPLC column was used with a mobile phase of 50 vol. % (0.3 vol. % glacial acetic acid, 0.2 vol. % TEA in water) and 50 vol. % acetonitrile. UV detection was measured at 260 nm.
(§2) In vitro dissolution tests were performed for Examples 35-38, using the procedures described in Example 4, with the following exceptions: 14.4 mg each of Example 35 and 36 were added to separate respective test tubes to which 1.8 mL of PBS solution was added, so that the total theoretical Drug 4 concentration was approximately 200 μg/mL if all of Drug 4 were to dissolve completely; 3.6 mg each of Examples 37 and 38 were added in separate respective test tubes to 1.8 mL of MFD solution, to provide a total theoretical Drug 5 concentration of approximately 20 μg/mL if all of Drug 5 were to dissolve completely. Drug 4 concentration in the samples was determined as in Example 33. Drug 5 concentration in the samples was determined as in Example 34.

[2] = In vitro dissolution test of Drug 2 compositions in MFD solution; design: AUC / AUC90: concentration or dose not given beside the values; details: for Drug 2: MFD solution, 37° C.
Protocol: as §1
This example measures' the concentration-enhancing properties of the PVP dispersion of Example 14. Dissolution tests were performed, as described in Example 4 with the following exceptions: the PBS solution contained 7.3 mM sodium taurocholic acid and 1.4 mM 1-palmitoyl-2-oleyl-sn-glycero-3-phosphocholine (model fasted duodenal (MFD) solution). 1.8 mg of dispersion was added to 1.8 mL of test media. For Control C6, 0.18 mg of the crystalline form of the Drug 2 alone was used without further processing and added to 1.8 mL of MFD solution.

[3] = In vitro dissolution test of Drug 3 compositions in MFD solution; design: AUC / AUC90: concentration or dose not given beside the values; details: for Drug 3: MFD solution, 37° C.
Protocol: as §1
Dissolution tests were performed, as described in Example 4 with the following exceptions: samples were tested in MFD Solution, and 1.8 mg of dispersion was added to 1.8 mLs of MFD Solution. Control C9 was simply 0.18 mg of the crystalline Drug 3 alone add to 1.8 mL of MFD solution.

[4] = In vitro dissolution test of Drug 4 compositions in PBS; details: for AUC / [Drug 4]: Table 25; for AUC / AUC90 / Cmax90: Drug 4, PBS; for [Drug 4]: PBS; for AUC90 / Cmax90: 0 to 90 min
Protocol: as §1
In vitro dissolution tests were performed for Examples 25-27 using the procedure described in Example 4, with the following exceptions: 14.4 mg each of the dispersions of Examples 25-27 were added to separate, respective centrifuge tubes. 1.8 mL PBS was added to each tube. For comparison, Control C11 was prepared consisting of 3.6 mg of crystalline Drug 4 added to 1.8 mL PBS. Drug 4 concentration in the samples was determined using HPLC. A Zorbax SB C18 HPLC column was used with a mobile phase of 35 vol. % water and 65 vol. % methanol. UV detection was measured at 297 nm.
as §2

[5] = Drug 2, MFD solution, 0 to 90 min
[6] = Drug 3, MFD solution, 0 to 90 min

AUC ([1]; time 0 min): 0 µg·min/mL | AUC ([1]; time 4 min): 0 µg·min/mL | AUC ([1]; time 10 min): 100 µg·min/mL | AUC ([1]; time 20 min): 300 µg·min/mL | AUC ([1]; time 40 min): 800 µg·min/mL | AUC ([1]; time 90 min): 2,200 min*μg/mL | AUC ([1]; time 1200 min): 43,300 min*μg/mL | Drug 5 Concentration ([1]; time 0 min): 0 µg/mL | Drug 5 Concentration ([1]; time 4 min): 9 µg/mL | Drug 5 Concentration ([1]; time 10 min): 15 µg/mL | Drug 5 Concentration ([1]; time 20 min): 21 µg/mL | Drug 5 Concentration ([1]; time 40 min): 27 µg/mL | Drug 5 Concentration ([1]; time 90 min): 32 µg/mL | Drug 5 Concentration ([1]; time 1200 min): 42 µg/mL | AUC90 ([1]; Table 28): 2,200 min*μg/mL | Cmax90 ([1]; Table 28): 32000 ng/mL | Cmax90 ([1]; Table 32): 32000 ng/mL | AUC90 ([1]; Table 32, in min·µg/mL): 2,200
Compound: NC(=O)N(O)C1C=C(c2cccc(Oc3ccc(F)cc3)c2)CC1 (single isomer, unassigned; (+)) [Example C12, (+)-N-{3-[3-(4-fluorophenoxy)phenyl]-2-cyclopenten-1-yl}-N-hydroxyurea]

AUC90 [2, 5]: 400 µg·min/mL | Cmax90 [2, 5]: 7000 ng/mL | AUC ([2]; Drug 2, MFD solution, time 0 min): 0 min*µg/mL | AUC ([2]; Drug 2, MFD solution, time 4 min): 0 min*µg/mL | AUC ([2]; Drug 2, MFD solution, time 10 min): 0 min*µg/mL | AUC ([2]; Drug 2, MFD solution, time 20 min): 100 min*µg/mL | AUC ([2]; Drug 2, MFD solution, time 40 min): 100 min*µg/mL | AUC ([2]; Drug 2, MFD solution, time 90 min): 400 min*µg/mL | Drug 2 ([2]; time 0 min): 0 µg/mL | Drug 2 ([2]; time 4 min): 2 µg/mL | Drug 2 ([2]; time 10 min): 4 µg/mL | Drug 2 ([2]; time 20 min): 4 µg/mL | Drug 2 ([2]; time 40 min): 4 µg/mL | Drug 2 ([2]; time 90 min): 7 µg/mL
Compound: O=C(NC(Cc1ccccc1)C(O)CC(C(=O)NO)C1CCC(F)(F)CC1)c1cnc2ccccc2n1 (stereo not shown) [Example C6, quinoxaline-2-carboxylic acid [1-benzyl-4-(4,4-difluoro-cyclohexyl)-2-hydroxy-4-hydroxycarbamoyl-butyl]-amide]

AUC90 [3, 6]: 900 µg·min/mL | Cmax90 [3, 6]: 13000 ng/mL | AUC ([3]; Drug 3, MFD solution, time 0 min): 0 min*µg/mL | AUC ([3]; Drug 3, MFD solution, time 4 min): 0 min*µg/mL | AUC ([3]; Drug 3, MFD solution, time 10 min): 0 min*µg/mL | AUC ([3]; Drug 3, MFD solution, time 20 min): 100 min*µg/mL | AUC ([3]; Drug 3, MFD solution, time 40 min): 300 min*µg/mL | AUC ([3]; Drug 3, MFD solution, time 90 min): 900 min*µg/mL | Drug 3 ([3]; time 0 min): 0 µg/mL | Drug 3 ([3]; time 4 min): 4 µg/mL | Drug 3 ([3]; time 10 min): 6 µg/mL | Drug 3 ([3]; time 20 min): 8 µg/mL | Drug 3 ([3]; time 40 min): 11 µg/mL | Drug 3 ([3]; time 90 min): 13 µg/mL
Compound: O=C(NC(Cc1ccccc1)C(O)CC(C(=O)NO)C1(O)CCC(F)(F)CC1)c1cnc2ccccc2n1 (stereo not shown) [Example C9, quinoxaline-2-carboxylic acid [1-benzyl-4-(4,4-difluoro-1-hydroxy-cyclohexyl)-2-hydroxy-4-hydroxycarbamoyl-butyl]-amide]

AUC ([4]; time 0 min): 0 µg·min/mL | AUC ([4]; time 4 min): 300 µg·min/mL | AUC ([4]; time 10 min): 1,000 min*μg/mL | AUC ([4]; time 20 min): 2,200 min*μg/mL | AUC ([4]; time 40 min): 4,500 min*μg/mL | AUC ([4]; time 90 min): 10,300 min*μg/mL | AUC ([4]; time 1200 min): 120,200 min*μg/mL | [Drug 4] ([4]; time 0 min): 0 µg/mL | [Drug 4] ([4]; time 4 min): 131 µg/mL | [Drug 4] ([4]; time 10 min): 114 µg/mL | [Drug 4] ([4]; time 20 min): 124 µg/mL | [Drug 4] ([4]; time 40 min): 107 µg/mL | [Drug 4] ([4]; time 90 min): 126 µg/mL | [Drug 4] ([4]; time 1200 min): 72 µg/mL | AUC90 ([4]; Table 26): 10,300 min*μg/mL | Cmax90 ([4]; Table 26): 131000 ng/mL | Cmax90 ([4]; Table 31): 131000 ng/mL | AUC90 ([4]; Table 31, in min·µg/mL): 10,300
Compound: O=C(N[C@@H](Cc1ccccc1)[C@@H](O)C(=O)N1C[C@@H](O)[C@@H](O)C1)c1cc2cc(Cl)ccc2[nH]1 [Example C11, 5-chloro-1H-indole-2-carboxylic acid [(1S)-benzyl-3-((3R,4S)-dihydroxypyrrolidin-1-yl)-(2R)-hydroxy-3-oxypropyl]amide]
